Test results as given in ChEMBL document CHEMBL1201862, “PubChem BioAssay data set” (2004).
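Values below derive from 48-hour exposures of cells grown in 96-well plates, with endpoints linearly interpolated between the two concentrations bracketing the appropriate inhibition level. GI50: concentration for 50% inhibition of growth.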 The source made the active and inactive calls. No stated cut-off is given here; in the data, active = GI50 up to about 1.1 µM and inactive = higher.

Legend:
Assay in all cases: NCI tumour cell line growth inhibition, 48 h
HOP-92 = tested on: HOP-92
COLO 205 = tested on: COLO 205
SK-MEL-28 = tested on: SK-MEL-28
IGROV-1 = tested on: IGROV-1
M14 = tested on: M14
CCRF-CEM = tested on: CCRF-CEM
MDA-MB-435 = tested on: MDA-MB-435
NCI-H522 = tested on: NCI-H522
786-0 = tested on: 786-0
SF-268 = tested on: SF-268
HOP-62 = tested on: HOP-62
RPMI-8226 = tested on: RPMI-8226
SF-295 = tested on: SF-295
MCF7 = tested on: MCF7
NCI-H226 = tested on: NCI-H226
A549 = tested on: A549
SW-620 = tested on: SW-620
SNB-75 = tested on: SNB-75
OVCAR-3 = tested on: OVCAR-3
HCT-116 = tested on: HCT-116
SN12C = tested on: SN12C
CAKI-1 = tested on: CAKI-1
SK-MEL-5 = tested on: SK-MEL-5
RXF 393 = tested on: RXF 393
KM12 = tested on: KM12
MDA-MB-231 = tested on: MDA-MB-231
SF-539 = tested on: SF-539
T47D = tested on: T47D
HCT-15 = tested on: HCT-15
HCC 2998 = tested on: HCC 2998
Malme-3M = tested on: Malme-3M
MOLT-4 = tested on: MOLT-4
ACHN = tested on: ACHN
PC-3 = tested on: PC-3
UACC-257 = tested on: UACC-257
EKVX = tested on: EKVX
SK-OV-3 = tested on: SK-OV-3
Hs-578T = tested on: Hs-578T
TK-10 = tested on: TK-10
NCI-H460 = tested on: NCI-H460
A498 = tested on: A498
HL-60 = tested on: HL-60
OVCAR-5 = tested on: OVCAR-5
SR = tested on: SR
UO-31 = tested on: UO-31
LOX IMVI = tested on: LOX IMVI
NCI/ADR-RES = tested on: NCI/ADR-RES
BT-549 = tested on: BT-549
HT-29 = tested on: HT-29
U-251 = tested on: U-251
NCI-H23 = tested on: NCI-H23
UACC-62 = tested on: UACC-62
MDA-N = tested on: MDA-N
SNB-19 = tested on: SNB-19
SK-MEL-2 = tested on: SK-MEL-2
OVCAR-4 = tested on: OVCAR-4
OVCAR-8 = tested on: OVCAR-8
K562 = tested on: K562
DU-145 = tested on: DU-145
M19-MEL = tested on: M19-MEL
HOP-18 = tested on: HOP-18
LXFL 529 = tested on: LXFL 529
DMS-114 = tested on: DMS-114
DMS-273 = tested on: DMS-273
KM-20L2 = tested on: KM-20L2
SNB-78 = tested on: SNB-78

Q: For `CC(C)NCCCNc1c2ccccc2nc2cccc([N+](=O)[O-])c12`, which GI50 (HOP-92) is on record?
A: 3.89 nM (active)

Q: And the GI50 (COLO 205)?
A: 1.61 nM (active)

Q: And the GI50 (SK-MEL-28)?
A: 144 nM (active)

Q: And the GI50 (IGROV-1)?
A: < 1 nM (active)

Q: What about the GI50 (M14) of the same compound?
A: 11.3 nM (active)

Q: And the GI50 (CCRF-CEM)?
A: 14.2 nM (active)

Q: And the GI50 (MDA-MB-435)?
A: 10.3 nM (active)

Q: And the GI50 (NCI-H522)?
A: 1.61 nM (active)

Q: And the GI50 (786-0)?
A: 4.45 nM (active)

Q: And the GI50 (SF-268)?
A: 7.57 nM (active)

Q: What about the GI50 (HOP-62) of the same compound?
A: 27.9 nM (active)

Q: And the GI50 (RPMI-8226)?
A: 2.19 nM (active)

Q: What about the GI50 (SF-295) of the same compound?
A: 7.46 nM (active)

Q: And the GI50 (MCF7)?
A: < 1 nM (active)

Q: What about the GI50 (NCI-H226) of the same compound?
A: 21.9 nM (active)

Q: What about the GI50 (A549) of the same compound?
A: 3.58 nM (active)

Q: And the GI50 (SW-620)?
A: 5.14 nM (active)

Q: And the GI50 (SNB-75)?
A: 30.8 nM (active)

Q: And the GI50 (OVCAR-3)?
A: 8.34 nM (active)

Q: What about the GI50 (HCT-116) of the same compound?
A: 26.2 nM (active)

Q: What about the GI50 (SN12C) of the same compound?
A: 9.57 nM (active)

Q: And the GI50 (CAKI-1)?
A: 29 nM (active)

Q: What about the GI50 (SK-MEL-5) of the same compound?
A: 3.54 nM (active)

Q: And the GI50 (RXF 393)?
A: 4.27 nM (active)

Q: What about the GI50 (KM12) of the same compound?
A: 16.9 nM (active)

Q: What about the GI50 (MDA-MB-231) of the same compound?
A: 13.2 nM (active)

Q: What about the GI50 (SF-539) of the same compound?
A: 48.4 nM (active)

Q: What about the GI50 (T47D) of the same compound?
A: 8.51 nM (active)

Q: And the GI50 (HCT-15)?
A: 50.4 nM

Q: And the GI50 (HCC 2998)?
A: 4.06 nM (active)

Q: And the GI50 (Malme-3M)?
A: 13.3 nM (active)

Q: And the GI50 (MOLT-4)?
A: 2.11 nM (active)

Q: What about the GI50 (ACHN) of the same compound?
A: 13.6 nM (active)

Q: And the GI50 (PC-3)?
A: 7.45 nM (active)

Q: And the GI50 (UACC-257)?
A: 44.5 nM (active)

Q: And the GI50 (EKVX)?
A: 17.7 nM (active)

Q: And the GI50 (SK-OV-3)?
A: 56.6 nM (active)

Q: What about the GI50 (Hs-578T) of the same compound?
A: 38.3 nM (active)

Q: What about the GI50 (TK-10) of the same compound?
A: 37.3 nM (active)

Q: And the GI50 (NCI-H460)?
A: 2.27 nM (active)

Q: And the GI50 (A498)?
A: 16.4 nM (active)

Q: And the GI50 (HL-60)?
A: 13 nM (active)

Q: What about the GI50 (OVCAR-5) of the same compound?
A: 12.8 nM (active)

Q: What about the GI50 (SR) of the same compound?
A: < 1 nM (active)

Q: And the GI50 (UO-31)?
A: 123 nM (active)

Q: And the GI50 (LOX IMVI)?
A: 10.1 nM (active)

Q: What about the GI50 (NCI/ADR-RES) of the same compound?
A: 794 nM (active)

Q: And the GI50 (BT-549)?
A: 42.1 nM (active)

Q: What about the GI50 (HT-29) of the same compound?
A: 2.02 nM (active)

Q: What about the GI50 (U-251) of the same compound?
A: 14.3 nM (active)

Q: What about the GI50 (NCI-H23) of the same compound?
A: 1.56 nM (active)

Q: What about the GI50 (UACC-62) of the same compound?
A: 12.5 nM (active)

Q: And the GI50 (MDA-N)?
A: 13.8 nM (active)

Q: What about the GI50 (SNB-19) of the same compound?
A: 49.9 nM (active)

Q: And the GI50 (SK-MEL-2)?
A: 15.7 nM (active)

Q: What about the GI50 (OVCAR-4) of the same compound?
A: 4.38 nM (active)

Q: And the GI50 (OVCAR-8)?
A: 5.66 nM (active)

Q: What about the GI50 (K562) of the same compound?
A: 2.62 nM (active)

Q: What about the GI50 (DU-145) of the same compound?
A: 6.5 nM (active)

Q: Which results are given for `O=c1c2c(-c3ccccc3)c3ccccc3nc2cnn1-c1ccccc1`?
A: GI50 (HOP-92): > 100000 nM (inactive); GI50 (COLO 205): 67000 nM (inactive); GI50 (SK-MEL-28): > 100000 nM (inactive); GI50 (IGROV-1): > 100000 nM (inactive); GI50 (M14): > 100000 nM (inactive); GI50 (CCRF-CEM): 81700 nM (inactive); GI50 (M19-MEL): > 100000 nM (inactive); GI50 (NCI-H522): 26700 nM (inactive); GI50 (786-0): > 100000 nM (inactive); GI50 (SF-268): > 100000 nM (inactive); GI50 (HOP-62): > 100000 nM (inactive); GI50 (RPMI-8226): > 100000 nM (inactive); GI50 (HOP-18): > 100000 nM (inactive); GI50 (SF-295): > 100000 nM (inactive); GI50 (LXFL 529): > 100000 nM (inactive); GI50 (NCI-H226): > 100000 nM (inactive); GI50 (A549): > 100000 nM (inactive); GI50 (SW-620): 91400 nM (inactive); GI50 (SNB-75): > 100000 nM (inactive); GI50 (DMS-114): 57100 nM (inactive); GI50 (OVCAR-3): 55500 nM (inactive); GI50 (HCT-116): > 100000 nM (inactive); GI50 (SN12C): > 100000 nM (inactive); GI50 (CAKI-1): > 100000 nM (inactive); GI50 (SK-MEL-5): > 100000 nM (inactive); GI50 (RXF 393): > 100000 nM (inactive); GI50 (KM12): 90600 nM (inactive); GI50 (SF-539): > 100000 nM (inactive); GI50 (DMS-273): > 100000 nM (inactive); GI50 (HCT-15): > 100000 nM; GI50 (HCC 2998): > 100000 nM (inactive); GI50 (Malme-3M): > 100000 nM (inactive); GI50 (MOLT-4): 96200 nM (inactive); GI50 (ACHN): > 100000 nM (inactive); GI50 (UACC-257): > 100000 nM (inactive); GI50 (EKVX): > 100000 nM (inactive); GI50 (SK-OV-3): > 100000 nM (inactive); GI50 (TK-10): > 100000 nM (inactive); GI50 (NCI-H460): > 100000 nM (inactive); GI50 (A498): > 100000 nM (inactive); GI50 (HL-60): 29400 nM (inactive); GI50 (OVCAR-5): > 100000 nM (inactive); GI50 (SR): 33200 nM (inactive); GI50 (UO-31): > 100000 nM (inactive); GI50 (KM-20L2): > 100000 nM (inactive); GI50 (LOX IMVI): > 100000 nM (inactive); GI50 (HT-29): 70300 nM (inactive); GI50 (SNB-78): > 100000 nM (inactive); GI50 (U-251): > 100000 nM (inactive); GI50 (NCI-H23): > 100000 nM (inactive); GI50 (UACC-62): > 100000 nM (inactive); GI50 (SNB-19): > 100000 nM (inactive); GI50 (SK-MEL-2): > 100000 nM (inactive); GI50 (OVCAR-4): > 100000 nM (inactive); GI50 (OVCAR-8): > 100000 nM (inactive); GI50 (K562): 42300 nM (inactive)
